For series [1], the system named is K562. Put plainly: Upregulation of axin-1 levels in human K562 cells by Western blot analysis. In kind it is functional, cell-based. To be noted: dose 0.1-10 µM, DDE = dose-dependent effect. (In western blotting, separated proteins are transferred to a membrane and probed.)
Series [2] has as its system K562. Put plainly: Downregulation of beta-catenin levels in human K562 cells by Western blot analysis. The series is classed as functional, cell-based. To be noted: dose 0.1-10 µM, DDE = dose-dependent effect.
Series [3] can be described thus: Aqueous solubility of the compound in PBS buffer at pH 7.4 incubated for 6 hrs by HPLC analysis. In kind it is physicochemical. To be noted: pH 7.4, 6 h.
The subject of series [4] is K562. Put plainly: cells. To be noted: Homo sapiens, K562, 48 h.

The structures appear in SMILES notation. ≈ marks a conversion by molar mass, not a printed value.

For the compound `CCc1ccccc1-n1nc(C)c(C(=O)Nc2ccc3ccccc3n2)c1C`, the Activity entry in series [1] and in series [2] was “Dde” in each case. Also, the solubility in series [3] turned out to be 5.2 µg/mL (≈ 14 µM).

As for `Cc1ccccc1-n1nc(C)c(C(=O)Nc2ccc3ccccc3n2)c1C`, the solubility in series [3] stood at 6.7 µg/mL (≈ 18.8 µM).

`Cc1nn(-c2ccccc2Br)c(C)c1C(=O)Nc1ccc2ccccc2n1` came in with a solubility in series [3] of 5.9 µg/mL (≈ 14 µM).

`Cc1c(C(=O)Nc2ccc3ccccc3n2)cnn1-c1ccccc1Br`: the solubility in series [3] came to 0.05 µg/mL (≈ 0.123 µM).

The compound `Cc1ccccc1-n1nnc(C(=O)Nc2ccc3ccccc3n2)c1C` yielded a solubility in series [3] of 0.11 µg/mL (≈ 0.32 µM). Besides, the IC50 in series [4] was above 50 µM.

In general, solubility refers to the concentration that dissolves in the medium under given conditions. Low values mean a poorly soluble substance, high ones a readily soluble substance. As usually defined, the IC50 is the concentration that inhibits the measured activity by half. A low value points to greater potency in that assay.
